Experimental data from US9211340B2, “Means and methods of enhancing delivery to biological systems” (priority 2006, dated 2015).
No end group written: not given here.

Columns and labels:
SCF-reporter construct = assay: ER-to-Golgi transport of SCF-reporter construct (Golgi-staining of cells); type: cell-based; conditions: 2-hours pretreatment and 1-hour ER-to Golgi transport; FIG. 4
SCF = SCF transport to the cell surface (SCF staining); type: cell-based; conditions: 100 μM peptide, 16 hours; FIG. 5
Description: FIG. 5: Arginine-ester peptide delivery and inhibition of SCF transport to the cell surface (16 hours). Left: No peptide; normal SCF membrane staining.
Cos-7 cells were plated overnight on glass coverslips in 10% serum containing DMEM. For the analysis, we suspended the peptide at 1 mM in PBS (phosphate buffered saline) which was diluted to final concentration in full medium. We washed the cells after 15 or 30 minutes and washed once with PBS and fixed with paraformaldehyed (4%) for 10 minutes and took images in PBS.

## Arginine-ester peptide: 20-mer SCF peptide (SEQ ID NO: 1) with glutamate carboxylates esterified with a guanidinium alkanol (NEEDNEISMLQEKEREFQEV; also: glutamate carboxylates esterified with a guanidinium alkanol (places and alkanol not given here); listed as Homo sapiens)
SCF-reporter construct
  % of cells exhibiting Golgi-staining of reporter construct (export of SCF-reporter construct): block export of a SCF-reporter construct
SCF
  inhibition of SCF transport to the cell surface (SCF staining): shift to intracellular SCF staining
